According to patent US20200060994A1, “METHODS OF TREATING PSYCHIATRIC STRESS DISORDERS” (Yeda Research and Development Co. Ltd., priority 2017, published 2020):
Entries after “also recorded” stand apart in the source; their conditions may differ. Counter-ions that a name gives are not always drawn.

Key:
importin α5 KO mice [1] = test: Open field (OF) test, importin α5 KO mice; format: in vivo, mouse; details: FG-7142 5 mg/kg intraperitoneally, OF after 30 min
Description: (§1) All drugs were administered by intraperitoneal injection (I.P.). […] A. CNS Drug Rev.

wild type C57BL6 mice [2] = test: Elevated plus maze (EPM) test, wild type mice; format: in vivo, mouse
Description: as §1
(§2) The EPM contains two open arms and two enclosed ones connected by a central square. Exploration on the open arms is reduced in high anxiety states while it is increased in low anxiety states [Walf, A. A. & Frye, C. A. Nat. Protoc. 2, 322-8 (2007)]. Mice were placed on the central platform facing one of the “open” arms to initiate a 5-minutes test session and the time spent in each arm was measured. The test was performed under 7 lx and 65 dB white noise. The number of entries into, the time spent/distance on the open arms and the percentage of the open arm entries compared with total number of arm entries were recorded using the VideoMot2 software (TSE System, Germany) or the Ethovision XT11 software (Noldus Information Technology, The Netherlands).

importin α5 KO mice [3] = test: Elevated plus maze (EPM) test, importin α5 KO mice; format: in vivo, mouse; details: PF-543 10 mg/kg i.p.
Description: as §1, §2

wild type C57BL6 mice [4] = test: Open field (OF) test, wild type mice; details: for anxiolytic properties / behavior in the OF test: 1 hour following i.p. injection vs vehicle, Sitosterol 100 mg/kg, Alvespimycin 75 mg/kg, Fluspirilene 10 mg/kg; for number of rearings in the OF center: larger cohort n=10 mice per group, P<0.01
[5] = S1P receptor agonist 0.1 mg/kg i.p., C57BL6, vs vehicle
[6] = S1P receptor agonist 0.1 mg/kg i.p., C57Bl6
[7] = β-sitosterol 100 mg/kg, 1 hour following injection, vs vehicle
[8] = β-sitosterol 100 mg/kg IP, 1 and 6 hours following injection, vs vehicle

Structure (SMILES): CNC(=O)c1cc2c(cn1)[nH]c1ccccc12 [FG-7142]
- distance travelled in the center of the OF (importin α5 KO mice [1]): significantly decreases
- number of rearing events in the center (importin α5 KO mice [1]): significantly decreases
- anxiolytic phenotype of importin α5 KO mice in the OF test (importin α5 KO mice [1]; 5 mg/kg): reversed anxiolysis

Structure (SMILES): Cc1cc(CS(=O)(=O)c2ccccc2)cc(OCc2ccc(CN3CCC[C@@H]3CO)cc2)c1 [PF-543]
- anxiety-related behavior of WT mice in the EPM (wild type C57BL6 mice [2]; PF-543 10 mg/kg i.p., WT mice): did not influence
- distance travelled in the open arms (importin α5 KO mice [3]; importin α5 KO animals): significantly decreased
- time spent in the open arms (importin α5 KO mice [3]; importin α5 KO animals): significantly decreased
- anxiolytic phenotype of importin α5 KO mice in the EPM (importin α5 KO mice [3]; 10 mg/kg): attenuated; also recorded: reverse the anxiolytic response of importin α5 KOs towards WT values

Structure (SMILES): CO[C@H]1/C=C\C=C(/C)C(=O)NC2=CC(=O)C(NCCN(C)C)=C(C[C@@H](C)C[C@H](OC)[C@H](O)[C@@H](C)/C=C(\C)[C@@H]1OC(N)=O)C2=O [alvespimycin]
- anxiolytic properties / behavior in the OF test (wild type C57BL6 mice [4]): marked yet variable differences; also recorded: anxiolytic effect
- rearing activity in the center (wild type C57BL6 mice [4]; alvespimycin 75 mg/kg i.p., 1 hour, single dosage regime, FIG. 12A): reaching statistical significance
- motor performances in the OF test (wild type C57BL6 mice [4]; alvespimycin, independent cohort n=10, FIG. 12B): without adverse effects
- number of rearings in the OF center (wild type C57BL6 mice [4]; alvespimycin, FIG. 12B): 6.2±2.07
- number of rearings in the OF center (wild type C57BL6 mice [4]; alvespimycin, FIG. 12B, listed as Alvespimycin): increase
- time spent in the center area (wild type C57BL6 mice [4]; alvespimycin, n=10 per group, FIG. 12B, P=0.052): increased
- latency to access the center area (wild type C57BL6 mice [4]; alvespimycin, n=10 per group, FIG. 12B, P=0.08): increased
- number of visit in the center area (wild type C57BL6 mice [4]; alvespimycin, n=10 per group, FIG. 12B, P=0.09): increased

Structure (SMILES): CNCCC(Oc1ccc(C(F)(F)F)cc1)c1ccccc1 (stereo not drawn) [fluoxetine, Fluoxetine hydrochloride]
- anxiolytic effect in the OF test, dose-response (wild type C57BL6 mice [4]; fluoxetine 2, 5, 10 or 20 mg/kg vs vehicle, 10 minutes OF test): dose dependent anxiolytic effect
- anxiolytic effects in the OF test (wild type C57BL6 mice [4]; fluoxetine doses of 5 mg/kg and below): no apparent effect
- anxiolytic effects in the OF test (wild type C57BL6 mice [4]; fluoxetine doses of 10 mg/kg and above): significant anxiolytic effects

Structure (SMILES): O=C1NCN(c2ccccc2)C12CCN(CCCC(c1ccc(F)cc1)c1ccc(F)cc1)CC2 [fluspirilene]
- anxiolytic properties / behavior in the OF test (wild type C57BL6 mice [4]): anxiolytic effect

Structure (SMILES): CCc1cc(/C(C)=N/OCc2ccc(C3CCCCC3)c(C(F)(F)F)c2)ccc1CN1CC(C(=O)O)C1 [siponimod]
- time spent in the open arms of the EPM (wild type C57BL6 mice [2]; [5]): significant increase
- anxiety levels in the EPM assay (wild type C57BL6 mice [2]; [6]): markedly reduced
- distance in the open arms of the EPM (wild type C57BL6 mice [2]; siponimod 0.1 mg/kg i.p. every 3 days during 4 weeks, vs vehicle): significant increase
- distance travelled in the center of the OF (wild type C57BL6 mice [4]; [5]): significant increase
- time spent in the center of the OF (wild type C57BL6 mice [4]; [5]): significant increase
- anxiety levels in the OF assay (wild type C57BL6 mice [4]; [6]): markedly reduced
- center/border ratio (for the exploration time) in the OF (wild type C57BL6 mice [4]; siponimod 0.1 mg/kg i.p. every 3 days during 4 weeks, vs saline): higher

Structure (SMILES): CC[C@H](CC[C@@H](C)[C@H]1CC[C@H]2[C@@H]3CC=C4C[C@@H](O)CC[C@]4(C)[C@H]3CC[C@]12C)C(C)C [β-sitosterol]
- distance in the open arms of the EPM (wild type C57BL6 mice [2]; [7]): significant increase
- time spent in the open arms of the EPM (wild type C57BL6 mice [2]; [7]): significant increase
- anxiolytic properties / behavior in the OF test (wild type C57BL6 mice [4]): anxiolytic effect
- distance travelled in the OF center (wild type C57BL6 mice [4]; [8]): increasing
- number of visits in the OF center (wild type C57BL6 mice [4]; [8]): increasing
- time course of anxiolytic effects in the OF test (wild type C57BL6 mice [4]; β-sitosterol by injection): apparent 1 hour post-injection and persisted until 6 hours following injection
- anxiolytic effect in the OF test, dose response (wild type C57BL6 mice [4]; β-sitosterol intraperitoneally at the indicated doses, 1 hour following injection): clear dose-dependent anxiolytic effects; also recorded: reaching significance for the highest dose tested
